Patent publication US20250326772A1, “MRGPRX2 ANTAGONISTS, PHARMACEUTICAL COMPOSITION INCLUDING MRGPRX2 ANTAGONIST, AND METHOD OF TREATING MRGPRX2-MEDIATED DISEASE OR DISORDER” (KYORIN PHARMACEUTICAL CO., LTD., priority 2024, published 2025)
pIC50: −log10 of the molar value.

Each molecule was assayed against T1, MRGPRX2 (Homo sapiens, UniProt Q96LB1) (assay: MRGPRX2 reporter cell assay (NFAT-RE luciferase, Substance P stimulation)). Conditions: U2OS cells stably transfected with MRGPRX2 and NFAT-RE luciferase reporter; Substance P at EC80.
T1 sequence (Q96LB1 1-330): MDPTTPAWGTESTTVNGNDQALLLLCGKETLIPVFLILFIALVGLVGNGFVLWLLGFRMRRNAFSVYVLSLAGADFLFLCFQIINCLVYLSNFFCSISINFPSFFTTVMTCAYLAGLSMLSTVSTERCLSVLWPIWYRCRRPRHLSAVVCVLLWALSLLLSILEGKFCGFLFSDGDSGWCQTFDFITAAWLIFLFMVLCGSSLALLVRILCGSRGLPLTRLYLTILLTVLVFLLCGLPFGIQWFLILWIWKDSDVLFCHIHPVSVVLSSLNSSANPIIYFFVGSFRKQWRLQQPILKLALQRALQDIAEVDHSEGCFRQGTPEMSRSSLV
Assay type: cell-based
Protocol: MRGPRX2 Reporter Cell Assays U2OS cells (ATCC, Manassas, VA) were stably transfected with MRGPRX2 expression clones (GeneCopoeia, Rockville, MD) and the pGL4.30 [luc2P/NFAT-RE/Hygro] reporter plasmid (Promega, Madison, WI). Clonal cells were maintained in Growth Media (McCoy's 5A, 10% FBS, 495 μg/ml hygromycin, 2 μg/ml puromycin, 100 units/ml penicillin, and 100 ug/ml streptomycin). The day before assay, cells were plated to white 384-well microplates at 3000 (MRGPRX2) cells/well in 10 ul Assay Media (McCoy's 5A, 2% charcoal dextran stripped FBS, 100 units/ml penicillin, and 100 ug/ml streptomycin) (Gibco, Thermo Fisher) and allowed to adhere overnight. The following day, serially diluted compound stocks were added directly to the cells (final DMSO concentration of 0.5%) and pre-incubated for 30 minutes at 37° C., 5% CO2. The final concentration of Substance P (Tocris, Minneapolis, MN, or PEPTIDE INSTITUTE, Osaka, Japan) corresponding to EC80 was added to stimulate the (MRGPRX2) cells. Cells were returned to the incubator for 6 hrs, after which 5 ul of ONE-GLO substrate (Promega) was added. Luminescence was read within 15 minutes (BioTek, Winooski, VT or infinite M1000Pro, Tecan Japan, Kanagawa, Japan). Percent inhibition for each test compound was calculated using the formula: […] where: • A=the luminescence count of the “test compound” well • B=the median luminescence count of the “Vehicle (0.5% DMSO)” wells • C═the median luminescence count of the “Vehicle (0.5% DMSO)+5 uM of substance P” wells The mean percent inhibition of each concentration of “test compound” was used to generate dose-response curves. IC50 values were calculated using a four-parameter logistic fit to the data using GraphPad Prism software. • +++: […]

Row | Compound | pIC50
1 | CCc1nn2c(c1-c1[nH]c3ncccc3c1-c1cn(C)nc1OC(F)F)OCCC2 [EX. 422] | 8.24
2 | CO[C@]1(C)COc2c(-c3[nH]c4ncccc4c3-c3cn(C)nc3OC(F)F)c(C(F)F)nn2C1 [EX. 435] | 8.39
3 | Cn1cc(-c2c(-c3c(C(F)F)nn4c3OC[C@@H](F)C4)[nH]c3ncccc23)c(C#N)n1 [EX. 449] | 8.59

Same assay, conditions: U2OS cells stably transfected with MRGPRX2 and NFAT-RE luciferase reporter; Substance P at EC80; class symbols

Row | Compound | pIC50
4 | N#Cc1ncccc1-c1c(-c2c(C(F)F)nn3c2OCCC3)[nH]c2ncccc12 [EX. 411] | 7.00 to 8.00
5 | FC(F)c1nn2c(c1-c1[nH]c3ncccc3c1-c1ccncc1C(F)(F)F)OCCC2 [EX. 412] | 7.00 to 8.00
6 | N#Cc1cccnc1-c1c(-c2c(C(F)F)nn3c2OCCC3)[nH]c2ncccc12 [EX. 413] | 6.00 to 7.00
7 | FC(F)c1nn2c(c1-c1[nH]c3ncccc3c1-c1cnsc1C(F)F)OCCC2 [EX. 416] | 7.00 to 8.00
8 | Cn1cc(-c2c(-c3c(C4CC4)nn4c3OCCC4)[nH]c3ncccc23)c(OC(F)F)n1 [EX. 420] | > 8.00
9 | Cc1nn2c(c1-c1[nH]c3ncccc3c1-c1cn(C)nc1OC(F)F)OCCC2 [EX. 421, 3-(3-(3-(difluoromethoxy)-1-methyl-1H-pyrazol-4-yl)-1H-pyrrolo[2,3-b]pyridin-2-yl)-2-methyl-6,7-dihydro-5H-pyrazolo[5,1-b] [1,3]oxazine] | > 8.00
10 | CCc1nn2c(c1-c1[nH]c3ncccc3c1-c1cn(C)nc1OC(F)F)OCCC2 [EX. 422] | > 8.00
11 | Cn1cc(-c2c(-c3c(CF)nn4c3OCCC4)[nH]c3ncccc23)c(OC(F)F)n1 [EX. 423] | > 8.00
12 | N#Cc1ncccc1-c1c(-c2c(C(F)F)nn3c2OC[C@@H](F)C3)[nH]c2ncccc12 [EX. 424] | > 8.00
13 | N[C@@H]1COc2c(-c3[nH]c4ncccc4c3-c3csnc3OC(F)F)c(C(F)F)nn2C1 [EX. 425] | > 8.00
14 | Cn1cc(-c2c(-c3c(C(F)F)nn4c3OCC(O)C4)[nH]c3ncccc23)c(OC(F)F)n1 (centres unmarked) [EX. 426, 3-(3-(3-(difluoromethoxy)-1-methyl-1H-pyrazol-4-yl)-1H-pyrrolo[2,3-b]pyridin-2-yl)-2-(difluoromethyl)-6,7-dihydro-5H-pyrazolo[5,1-b] [1,3]oxazin-6-ol] | > 8.00
15 | Cn1cc(-c2c(-c3c(C(F)F)nn4c3OC[C@@H](O)C4)[nH]c3ncsc23)c(OC(F)F)n1 [EX. 427, (S)-3-(6-(3-(difluoromethoxy)-1-methyl-1H-pyrazol-4-yl)-4H-pyrrolo[2,3-d]thiazol-5-yl)-2-(difluoromethyl)-6,7-dihydro-5H-pyrazolo[5,1-b] [1,3]oxazin-6-ol] | > 8.00
16 | Cn1cc(-c2c(-c3c(C(F)F)nn4c3OC[C@@H](N)C4)[nH]c3ncsc23)c(OC(F)F)n1 [EX. 428, (S)-3-(6-(3-(difluoromethoxy)-1-methyl-1H-pyrazol-4-yl)-4H-pyrrolo[2,3-d]thiazol-5-yl)-2-(difluoromethyl)-6,7-dihydro-5H-pyrazolo[5,1-b] [1,3]oxazin-6-amine] | > 8.00
17 | COc1ncccc1-c1c(-c2c(C(F)F)nn3c2OCCC3)[nH]c2ncccc12 [EX. 429, 2-(difluoromethyl)-3-(3-(2-methoxypyridin-3-yl)-1H-pyrrolo[2,3-b]pyridin-2-yl)-6,7-dihydro-5H-pyrazolo[5,1-b] [1,3]oxazine] | > 8.00
18 | FC(F)c1nn2c(c1-c1[nH]c3ncccc3c1C1=CCCCC1)OCCC2 [EX. 430] | > 8.00
19 | COc1ncc(F)cc1-c1c(-c2c(C(F)F)nn3c2OCCC3)[nH]c2ncccc12 [EX. 431] | > 8.00
20 | Cn1cc(-c2c(-c3c(C(F)F)nn4c3OCC4)[nH]c3ncccc23)c(OC(F)F)n1 [EX. 432] | > 8.00
21 | Cc1cc(-c2c(-c3c(C(F)F)nn4c3OCC4)[nH]c3ncccc23)c(C#N)s1 [EX. 433] | > 8.00
22 | Cn1cc(-c2c(-c3c(C(F)F)nn4c3OC[C@@H](F)C4)[nH]c3ncccc23)c(OC(F)F)n1 [EX. 434] | > 8.00

Row | Compound | pIC50
23 | CO[C@]1(C)COc2c(-c3[nH]c4ncccc4c3-c3cn(C)nc3OC(F)F)c(C(F)F)nn2C1 [EX. 435] | > 8.00
24 | Cc1cc(-c2c(-c3c(C(F)F)nn4c3OC[C@@H](F)C4)[nH]c3ncccc23)c(Cl)s1 [EX. 436] | > 8.00
25 | FC(F)Oc1ncccc1-c1c(-c2c(C(F)F)nn3c2OC[C@@H](F)C3)[nH]c2ncccc12 [EX. 437] | > 8.00
26 | C[C@@]1(O)COc2c(-c3[nH]c4ncccc4c3-c3cccnc3OC(F)F)c(C(F)F)nn2C1 [EX. 438] | > 8.00
27 | CO[C@]1(C)COc2c(-c3[nH]c4ncccc4c3-c3cccnc3OC(F)F)c(C(F)F)nn2C1 [EX. 439] | > 8.00
28 | C[C@@]1(O)COc2c(-c3[nH]c4ncccc4c3-c3cccnc3OC(F)F)c(C3CC3)nn2C1 [EX. 440] | > 8.00
29 | FC(F)Oc1ncccc1-c1c(-c2c(C(F)F)nn3c2OCCCC3)[nH]c2ncccc12 [EX. 441] | > 8.00
30 | FC(F)Oc1ncccc1-c1c(-c2c(C(F)F)nn3c2OCC3)[nH]c2ncccc12 [EX. 442] | > 8.00
31 | FC(F)Oc1ccccc1-c1c(-c2c(C(F)F)nn3c2OC[C@@H](F)C3)[nH]c2ncccc12 [EX. 444] | > 8.00
32 | FC(F)c1nn2c(c1-c1[nH]c3ncccc3c1-c1ccccc1)OC[C@@H](F)C2 [EX. 445] | > 8.00
33 | COc1ncccc1-c1c(-c2c(C(F)F)nn3c2OC[C@@H](F)C3)[nH]c2ncccc12 [EX. 446] | > 8.00
34 | Fc1ccc(-c2c(-c3c(C(F)F)nn4c3OC[C@@H](F)C4)[nH]c3ncccc23)c(OC(F)F)c1 [EX. 447] | > 8.00
35 | Cn1cc(-c2c(-c3c(C(F)F)nn4c3OC[C@@H](F)C4)[nH]c3ncccc23)c(C#N)n1 [EX. 449] | > 8.00
36 | Cc1cc(-c2c(-c3c(C(F)F)nn4c3OC[C@@H](F)C4)[nH]c3ncccc23)c(C#N)s1 [EX. 450] | > 8.00
37 | Cc1cc(-c2c(-c3c(C(F)F)nn4c3OC[C@@](C)(O)C4)[nH]c3ncccc23)c(C#N)s1 [EX. 451] | > 8.00
38 | Cc1cc(-c2c(-c3c(C(F)F)nn4c3OCCCC4)[nH]c3ncccc23)c(C#N)s1 [EX. 452] | > 8.00
39 | O[C@@H]1COc2c(-c3[nH]c4ncccc4c3-c3ccsc3Cl)c(C(F)F)nn2C1 [EX. 453] | > 8.00
40 | O[C@@H]1COc2c(-c3[nH]c4ncccc4c3-c3cccnc3OC(F)F)c(C(F)F)nn2C1 [EX. 454] | > 8.00
41 | O[C@@H]1COc2c(-c3[nH]c4ncccc4c3-c3cccnc3OC(F)F)c(C3CC3)nn2C1 [EX. 455] | > 8.00

Row | Compound | pIC50
42 | CS(=O)(=O)N[C@@H]1COc2c(-c3[nH]c4ncccc4c3-c3cccnc3OC(F)F)c(C3CC3)nn2C1 [EX. 456] | > 8.00
43 | Cc1cc(-c2c(-c3c(C4CC4)nn4c3OC[C@@H](NS(C)(=O)=O)C4)[nH]c3ncccc23)c(C#N)s1 [EX. 457] | > 8.00
44 | Cc1cc(-c2c(-c3c(C(F)F)nn4c3OC[C@@H](O)C4)[nH]c3ncccc23)c(C#N)s1 [EX. 458] | > 8.00
45 | Cc1cc(-c2c(-c3c(C)nn4c3OC[C@@H](O)C4)[nH]c3ncccc23)c(C#N)s1 [EX. 459] | > 8.00
46 | Cc1cc(-c2c(-c3c(C4CC4)nn4c3OC[C@@H](O)C4)[nH]c3ncccc23)c(C#N)s1 [EX. 460] | > 8.00
47 | O[C@@H]1COc2c(-c3[nH]c4ncccc4c3-c3csnc3OC(F)F)c(C(F)F)nn2C1 [EX. 461] | > 8.00
48 | COc1ncccc1-c1c(-c2c(C(F)F)nn3c2OC[C@@H](O)C3)[nH]c2ncccc12 [EX. 462] | > 8.00
49 | O[C@@H]1COc2c(-c3[nH]c4ncccc4c3-c3ccncc3OC(F)F)c(C(F)F)nn2C1 [EX. 463] | > 8.00
50 | O[C@@H]1COc2c(-c3[nH]c4ncccc4c3-c3ccccc3OC(F)(F)F)c(C(F)F)nn2C1 [EX. 464] | > 8.00
51 | O[C@@H]1COc2c(-c3[nH]c4ncccc4c3-c3ccccc3)c(C(F)F)nn2C1 [EX. 465] | > 8.00
52 | O[C@@H]1COc2c(-c3[nH]c4ncccc4c3-c3cccc(F)c3OC(F)F)c(C(F)F)nn2C1 [EX. 466] | > 8.00
53 | O[C@@H]1COc2c(-c3[nH]c4ncccc4c3-c3ccc(F)cc3OC(F)F)c(C(F)F)nn2C1 [EX. 467] | > 8.00
54 | O[C@@H]1COc2c(-c3[nH]c4ncccc4c3-c3cc(F)ccc3OC(F)F)c(C(F)F)nn2C1 [EX. 468] | > 8.00
55 | O[C@@H]1COc2c(-c3[nH]c4ncccc4c3-c3ccccc3OC(F)F)c(C(F)F)nn2C1 [EX. 469] | > 8.00
56 | N#Cc1ncccc1-c1c(-c2c(C(F)F)nn3c2OC[C@@H](O)C3)[nH]c2ncccc12 [EX. 470] | > 8.00
57 | COc1ccc(C#N)c(-c2c(-c3c(C(F)F)nn4c3OC[C@@H](F)C4)[nH]c3ncccc23)c1 [EX. 471] | > 8.00
58 | COc1ncc(F)cc1-c1c(-c2c(C(F)F)nn3c2OC[C@@H](O)C3)[nH]c2ncccc12 [EX. 476] | > 8.00
59 | N#Cc1ncccc1-c1c(-c2c(C(F)F)nn3c2OC[C@@H](O)C3)[nH]c2ncccc12 [EX. 477] | > 8.00
